Test results as given in ChEMBL document CHEMBL5230122, “Natural products and other inhibitors of F1FO ATP synthase” (Eur J Med Chem, 2020).
Converted amounts (≈) assume the structure as drawn. Numbered stars: 1 amine (or outer) side, 2 acyl side, 3 side chain; on linkers, the order of the positions; unused ones are H or OH. Square brackets hold non-standard residues; d marks the D form. Peptide text beside a SMILES is read from it. * marks the point of attachment. X2 = CCC(=O)C[C@H](O)C[C@@H](C)C[C@H](N[*:1])C(=O)[*:2]; Leu(3R-OH) = CC(C)[C@@H](O)[C@H](N)C(=O)O; NH((S)CH(Me)CH2NMe2) = C[C@@H](CN(C)C)N*; X3 = CC(C)C[C@@H](CN1CCC[N+]2=C1CCC2)N*; Pro(4S-Me) = C[C@@H]1CN[C@H](C(=O)O)C1; X1 = CC[C@@H](C)/C=C/C(=O)*; Pip = O=C(O)[C@@H]1CCCCN1; Iva = CC[C@](C)(N)C(=O)O; Aib = CC(C)(N)C(=O)O; βAla = NCCC(=O)O

Legend:
[1] = system: HCT-116; assay: Antiproliferative activity against human HCT-116 cells assessed as reduction in cell viability incubated for 72 hrs by MTT assay; format: functional, cell-based; details: HCT-116, 72 h
[2] = Antiproliferative activity against human U87G cells assessed as reduction in cell viability incubated for 72 hrs by MTT assay; format: functional, cell-based
[3] = system: GBM; assay: Anticancer activity against human GBM cells carrying high-throughput GBM sphere assessed as reduction in cell viability incubated for 96 hrs by Cell-Titer-Glo assay; format: functional, cell-based
[4] = system: MCF7; assay: Antitumor activity against human MCF7 cells assessed as reduction in cell viability incubated for 24 hrs by MTT assay; format: functional, cell-based; details: MCF7, 24 h
[5] = system: P388; assay: Anticancer activity against mouse P388 cells assessed as reduction in cell viability incubated for 96 hrs by MTT assay; format: functional, cell-based; details: P388, 96 h
[6] = Antiproliferative activity against human Keratinocyte assessed as inhibition of cell proliferation incubated for 2 days by Beckman Coulter analysis; format: functional, cell-based; details: 48 h
[7] = Cytotoxicity against mouse L929 cells assessed as reduction in cell viability; format: toxicity, cell-based
[8] = system: DU-145; assay: Antiproliferative activity against human DU-145 cells assessed as reduction in cell viability incubated for 3 days by rhodanile-blue dye based microplate reader analysis; format: functional; details: DU-145, 72 h
[9] = Inhibition of bovine heart mitochondrial F0F1-ATP synthase F0 domain assessed as reduction in rate of NADH oxidation for 30 mins by colorimetric assay; format: mitochondria, Bos taurus, Mitochondria
[10] = Acute toxicity in mouse assessed as maximum tolerated dose; details: in vivo
[11] = system: DU-145; assay: Antiproliferative activity against human DU-145 cells assessed as reduction in cell viability preincubated with PrSCs cells for 2 days followed by co-culture with DU-145 for 3 days by rhodanile-blue dye based microplate reader analysis; format: functional
[12] = system: HCT-116; assay: Antitumor activity against human HCT-116 cells assessed as reduction in cell viability incubated for 72 hrs by MTT assay; format: functional, cell-based; details: HCT-116, 72 h
[13] = system: K562; assay: Antitumor activity against human K562 cells assessed as reduction in cell viability incubated for 72 hrs by MTT assay; format: functional, cell-based; details: K562, 72 h
[14] = system: K562; assay: Antiproliferative activity against human K562 cells assessed as reduction in cell viability incubated for 72 hrs by MTT assay; format: functional, cell-based; details: K562, 72 h
[15] = system: HL-60; assay: Anticancer activity against human HL-60 cells assessed as reduction in cell viability incubated for 72 hrs by CCK-8 assay; format: functional, cell-based; details: HL-60, 72 h
[16] = system: LoVo; assay: Anticancer activity against human LoVo cells assessed as reduction in cell viability incubated for 72 hrs by CCK-8 assay; format: functional, cell-based
[17] = system: NCI-H1299; assay: Anticancer activity against human NCI-H1299 cells assessed as reduction in cell viability incubated for 72 hrs by CCK-8 assay; format: functional, cell-based; details: NCI-H1299, 72 h
[18] = system: MCF7; assay: Anticancer activity against human MCF7 cells assessed as reduction in cell viability incubated for 72 hrs by CCK-8 assay; format: functional, cell-based; details: MCF7, 72 h
[19] = system: HeLa; assay: Antiproliferative activity against human HeLa cells assessed as reduction in cell viability by MTT assay; format: functional, cell-based
[20] = system: NCI-H292; assay: Antiproliferative activity against human NCI-H292 cells assessed as reduction in cell viability by MTT assay; format: functional, cell-based
[21] = system: HL-60; assay: Anticancer activity against human HL-60 cells assessed inhibition of cell proliferation incubated for 48 hrs by MTT assay; format: functional, cell-based; details: HL-60, 48 h
[22] = Inhibition of mouse liver mitochondrial ATP synthase by microplate immuno-capture ELISA assay; format: mitochondria, Mitochondria
[23] = system: HL-60; assay: Cytotoxicity against human HL-60 cells assessed as reduction in cell viability; format: functional, cell-based
[24] = system: HeLa; assay: Cytotoxicity against human HeLa cells assessed as reduction in cell viability; format: functional, cell-based
[25] = Inhibition of bovine heart mitochondrial F0F1-ATP synthase assessed as rate of NADH oxidation in presence of NADH for 30 mins by colorimetric assay; format: mitochondria, Bos taurus, Mitochondria
[26] = system: SNU-398; assay: Anticancer activity against human SNU-398 cells expressing high level of SALL4 assessed as reduction in cell viability incubated for 72 hrs by CellTiter-Glo assay; format: functional, cell-based; details: SNU-398, 72 h
[27] = system: N2a; assay: Antiproliferative activity against mouse Neuro2a cells assessed as reduction in cell viability incubated for 48 hrs by MTT assay; format: functional, cell-based

CO[C@H]1[C@H](O[C@@H]2C[C@@H]3C[C@H](O)[C@]4(O)C(=O)O[C@@H](C[C@H](O)[C@@H]5C[C@H](C)[C@H](/C=C\C=C\[C@H](C)C[C@H](C2)O3)O5)[C@H]4O)O[C@@H](C)[C@H](OCCCC=O)[C@H]1OCCCC=O
IC50 [1]: > 3000 nM
IC50 [2]: > 3000 nM

CCc1n(CC(=O)O[C@@H]2C[C@H](C)CC[C@H]2C(C)C)c2ccccc2[n+]1C
IC50 [3]: 150 nM

Oc1ccc(/C=C/c2cc(O)cc(O)c2)cc1 [RESVERATROL]
IC50 [4]: 80000 nM

CC/C(C)=C(\NC(=O)[C@@H](NC(=O)CC(=O)[C@@H](C)CC(C)C)[C@](C)(O)CC)C(=O)NCC(=O)N/C(C(=O)N[C@@H](C(=O)N[C@@H](C(=O)N[C@@H](C(=O)N[C@H](C(=O)N/C(C(=O)N[C@H](C)C(=O)N[C@@H](C(=O)N[C@H](C(=O)NC(C(=O)N[C@H](CN(C)C)C(C)C)=C(C)C)C(C)C)C(C)C)=C(\C)CC)C(C)(C)O)C(C)(C)O)[C@@H](C)CC)C(C)C)=C(\C)CC
IC50 [5]: 0.88 nM

CN1C(=O)C(Cc2ccc3ccccc3c2)N=C(c2ccc(O)cc2)c2cc(Cl)ccc21 (centres undefined)
EC50 [6]: 3100 nM

CCC[C@H](O)[C@@H](C)C(=O)NC/C=C\C[C@@H](C)[C@@H](O)[C@H](C)[C@@H](O)C/C=C\C[C@H](C)[C@H]1Cc2cc(OC)cc(O)c2C(=O)O1
IC50 [7]: > 1 µg/mL

CN1C(=O)C(Cc2ccccc2-c2ccccc2)N=C(c2ccc(O)cc2)c2cc(Cl)ccc21 (centres undefined)
EC50 [6]: 2200 nM

CC[C@@H](C)/C=C/C(=O)N1C[C@@H](C)C[C@H]1C(=O)N[C@@H](C)C(=O)N[C@H](C(=O)NC(C)(C)C(=O)N[C@@H](CC(C)C)C(=O)N[C@@H](CC(C)C)C(=O)NC(C)(C)C(=O)NC(C)(C)C(=O)NCCC(=O)N[C@@H](C)CN(C)C)[C@H](O)C(C)C (X1-[Pro(4S-Me)]A[Leu(3R-OH)][Aib]LL[Aib][Aib][βAla]-{NH((S)CH(Me)CH2NMe2)})
IC50 [8]: > 1 µg/mL
IC50 [9]: 2.8 µg/mL (≈ 2.6 µM)
MTD [10]: 12.5 mg/kg
IC50 [11]: 0.21 µg/mL (≈ 0.195 µM)

CC[C@H]1/C=C/C=C/C[C@@H](C)[C@H](O)[C@@](C)(O)C(=O)[C@@H](C)[C@H](O)[C@@H](C)C(=O)[C@@H](C)[C@H](O)[C@@H](C)/C=C/C(=O)O[C@@H]2[C@H](C)[C@H](CC1)O[C@]1(CC[C@H](C)[C@H](C[C@@H](C)O)O1)[C@H]2C [OLIGOMYCIN]
IC50 [12]: 1000 nM
IC50 [13]: 200 nM
IC50 [1]: 900 nM
IC50 [14]: 200 nM

CC[C@H](C)[C@H](NC(=S)[C@H](C)NC(=O)[C@H](C)NC(=S)[C@H](CCSC)NC(=S)[C@@H](NC(=O)C(C)=O)C(C)C)C(=S)N[C@@H](C)C(=O)N[C@H]1C(=O)N[C@@H](C(C)C)C(=O)N[C@@H](C)C(=O)N[C@@H](Cc2ccc(OC)cc2)C(=O)N[C@@H](C(O)c2cn(C)c[n+]2C)C(=O)N/C=C\SC1C (some centres undefined)
IC50 [15]: 610 nM
IC50 [16]: 1830 nM
IC50 [17]: 5080 nM
IC50 [18]: 4980 nM

COC[C@@H](C[C@H]1O[C@@](O)([C@H](O)[C@@H]2C[C@H](OC)[C@@H](O)CC/C=C(C)/C=C/[C@@H](O[C@@H]3O[C@@H](C)[C@H](OC)[C@@H](O)[C@@H]3OC(=O)CCC(=O)O)[C@H](C)/C=C(C)/C=C(C)/C=C(\C)C(=O)O2)[C@H](C)[C@@H](O)[C@H]1C)O[C@H]1C[C@](C)(O)[C@@H](O[C@H]2C[C@@H](OC)[C@H](O)[C@@H](C)O2)[C@H](C)O1
IC50 [19]: 240 nM
IC50 [20]: 91 nM

CCC(=O)C[C@H](O)C[C@@H](C)C[C@H](NC(=O)[C@@H]1C[C@H](C)CN1C(=O)/C=C/[C@H](C)CC)C(=O)N[C@H](C(=O)NC(C)(C)C(=O)N[C@@H](CC(C)C)C(=O)N[C@@H](CC(C)C)C(=O)NC(C)(C)C(=O)NC(C)(C)C(=O)NCCC(=O)N[C@@H](C)CN(C)C)[C@H](O)C(C)C (X1-[Pro(4S-Me)][X2][Leu(3R-OH)][Aib]LL[Aib][Aib][βAla]-{NH((S)CH(Me)CH2NMe2)})
IC50 [8]: > 1 µg/mL
IC50 [9]: 2.8 µg/mL (≈ 2.3 µM)
MTD [10]: 2.5 mg/kg
IC50 [11]: 0.045 µg/mL (≈ 0.0369 µM)

Ic1ccc(-c2c3ccc(=[N+]4CCCCC4)cc-3oc3cc(N4CCCCC4)ccc23)cc1
IC50 [21]: 100 nM
IC50 [22]: 3900 nM

CCC(=O)[C@@H](C)[C@H](OC(C)=O)[C@@H](C)/C=C/C(=O)O[C@@H]1[C@H](C)[C@H](CC[C@H](/C=C/C=C/C[C@@H](C)[C@H](OC(C)=O)[C@@]2(C)OC=C(C)C2=O)CC)O[C@]2(CC[C@H](C)[C@H](C[C@@H](C)OC(C)=O)O2)[C@H]1C
IC50 [12]: 3100 nM
IC50 [13]: 900 nM

CC[C@@H](O)C[C@@H]1O[C@@]2(CC[C@@H]1C)C[C@H]1C[C@H](CC[C@@H](CC)/C=C/C=C/CCC[C@@](C)(O)[C@H](O)C[C@H](O)C[C@@H](O)[C@@H](C)[C@H](O)[C@@H](CC)/C=C/C(=O)O1)O2
IC50 [23]: 5800 nM
IC50 [24]: 8200 nM
IC50 [25]: 1000 nM

COC[C@@H](C[C@H]1O[C@@](O)([C@H](O)[C@@H]2C[C@H](OC)[C@@H](O)CC/C=C(C)/C=C/[C@@H](O[C@@H]3O[C@@H](C)[C@H](OC)[C@@H](OC(=O)CCC(=O)O)[C@@H]3O)[C@H](C)/C=C(C)/C=C(C)/C=C(\C)C(=O)O2)[C@H](C)[C@@H](O)[C@H]1C)O[C@H]1C[C@](C)(O)[C@@H](O[C@H]2C[C@@H](OC)[C@H](O)[C@@H](C)O2)[C@H](C)O1
IC50 [19]: 260 nM
IC50 [20]: 82 nM

CC[C@](C)(NC(=O)[C@@H]1CCCCN1C(=O)C(C)(C)NC(=O)[C@@H]1CCCCN1C(C)=O)C(=O)NC(C)(C)C(=O)N[C@@H](CC(C)C)C(=O)NCCC(=O)NCC(=O)NC(C)(C)C(=O)NC(C)(C)C(=O)N1CCCC[C@H]1C(=O)NC(C)(C)C(=O)N[C@@H](C)C(=O)N[C@@H](CC(C)C)C(=O)NC(C)(C)C(=O)N[C@@H](CC(C)C)CN1CCC[N+]2=C1CCC2 (Ac-[Pip][Aib][Pip][Iva][Aib]L[βAla]G[Aib][Aib][Pip][Aib]AL[Aib]-X3)
IC50 [26]: 5 nM

CO[C@H]1[C@H](O[C@@H]2C[C@@H]3C[C@H](OCCCC=O)[C@@]4(O)C[C@H](C[C@H](O)[C@@H]5C[C@H](C)[C@H](/C=C\C=C\[C@H](C)C[C@H](C2)O3)O5)OC4=O)O[C@@H](C)[C@H](O)[C@H]1O
IC50 [27]: 84 nM
IC50 [1]: 54 nM
IC50 [2]: 61 nM

CC(C)[C@@H]1CC[C@@H](C)C[C@H]1OC(=O)Cn1c(-c2cccc(C(F)(F)F)c2)[n+](C)c2ccccc21
IC50 [3]: 470 nM

c1csc(-c2c3ccc(=[N+]4CCCCC4)cc-3oc3cc(N4CCCCC4)ccc23)c1
IC50 [21]: 100 nM
IC50 [22]: 3000 nM

CN1C(=O)C(Cc2ccc3ccccc3c2)N=C(c2ccc3[nH]c(=O)[nH]c3c2)c2cc(Cl)ccc21 (centres undefined)
EC50 [6]: 2100 nM

O=C(Oc1cc(/C=C/c2ccc(O)cc2)cc(OC(=O)c2ccco2)c1)c1ccco1
IC50 [4]: 42700 nM
